± gives the standard deviation of the averaged measurements.
Experiments:
Experiment in all cases: cell viability (CellTiter-Glo luminescence) relative to DMSO (fraction of DMSO control); higher = higher signal (more live cells for CellTiter-Glo)
Details in all cases: 72 h
KASUMI-1 = test system: KASUMI-1
Description: (§1)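 MOLM13, DU4475, HDQP1 and IGROV1 cells were treated with compounds in 384-well format for 72 h (KASUMI-1 in 96-well plates, RPMI + 10% FCS, 72 h). Viability was read with CellTiter-Glo and cell death with CellTox Green, both normalised to DMSO vehicle. Doses ranged 0.001-30 µM.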

IGROV1 = test system: IGROV1
Description: as §1

DU4475 = test system: DU4475
Description: as §1

HDQP1 = test system: HDQP1
Description: as §1

MOLM13 = test system: MOLM13
Description: as §1

| SMILES | cell viability (KASUMI-1; 0.000948683 µM) | cell viability (KASUMI-1; 0.003 µM) | cell viability (KASUMI-1; 0.00948683 µM) | cell viability (KASUMI-1; 0.03 µM) | cell viability (KASUMI-1; 0.3 µM) | cell viability (KASUMI-1; 0.948683 µM) | cell viability (KASUMI-1; 3 µM) | cell viability (KASUMI-1; 9.48683 µM) | cell viability (KASUMI-1; 30 µM) | cell viability (IGROV1; 0.01 µM) | cell viability (IGROV1; 0.1 µM) | cell viability (IGROV1; 0.3 µM) | cell viability (IGROV1; 1 µM) | cell viability (IGROV1; 3 µM) | cell viability (IGROV1; 10 µM) | cell viability (IGROV1; 30 µM) | cell viability (DU4475; 0.01 µM) | cell viability (DU4475; 0.1 µM) | cell viability (DU4475; 0.3 µM) | cell viability (DU4475; 1 µM) | cell viability (DU4475; 3 µM) | cell viability (DU4475; 10 µM) | cell viability (DU4475; 30 µM) | cell viability (HDQP1; 0.01 µM) | cell viability (HDQP1; 0.1 µM) | cell viability (HDQP1; 0.3 µM) | cell viability (HDQP1; 1 µM) | cell viability (HDQP1; 3 µM) | cell viability (HDQP1; 10 µM) | cell viability (HDQP1; 30 µM) | cell viability (MOLM13; 0.01 µM) | cell viability (MOLM13; 0.1 µM) | cell viability (MOLM13; 0.3 µM) | cell viability (MOLM13; 1 µM) | cell viability (MOLM13; 3 µM) | cell viability (MOLM13; 10 µM) | cell viability (MOLM13; 30 µM) | cell viability (KASUMI-1; 0.0948683 µM) |
| --- | --- | --- | --- | --- | --- | --- | --- | --- | --- | --- | --- | --- | --- | --- | --- | --- | --- | --- | --- | --- | --- | --- | --- | --- | --- | --- | --- | --- | --- | --- | --- | --- | --- | --- | --- | --- | --- | --- |
| Cc1cc(-c2cc(NC(=O)c3ccc(C(C)(C)C)cc3)[nH]n2)ccn1 [3i-1246] | 1.076 ± 0.0022 | 1.13 ± 0.067 | 1.17 ± 0.087 | 1.22 ± 0.064 | 1.1 ± 0.073 | 0.962 ± 0.2 | 0.566 ± 0.018 | 0.239 ± 0.0055 | 0.00978 ± 0.0007 | 0.998 ± 0.05 | 0.958 ± 0.072 | 0.866 ± 0.042 | 0.864 ± 0.095 | 0.811 ± 0.053 | 0.587 ± 0.085 | 0.19 ± 0.051 | 1 ± 0.023 | 1 ± 0.048 | 0.983 ± 0.023 | 0.966 ± 0.045 | 0.92 ± 0.029 | 0.435 ± 0.12 | 0.00106 ± 0.0011 | 0.98 ± 0.034 | 0.99 ± 0.031 | 0.986 ± 0.057 | 0.928 ± 0.083 | 0.943 ± 0.068 | 0.628 ± 0.098 | 0.178 ± 0.052 | 0.959 ± 0.052 | 0.755 ± 0.043 | 0.418 ± 0.062 | 0.21 ± 0.031 | 0.0386 ± 0.018 | 0.0136 ± 0.037 | 0.000242 ± 0.0027 | – |
| C=CCCn1cc(-c2cc(C(=O)N3CCOCC3)cc3c2ncn3C)c2cc[nH]c2c1=O [GNE-371] | – | – | – | – | – | – | – | – | – | 1.07 ± 0.11 | 1.02 ± 0.07 | 0.935 ± 0.064 | 0.975 ± 0.052 | 0.95 ± 0.11 | 0.931 ± 0.043 | 0.958 ± 0.054 | 1.01 ± 0.017 | 1.01 ± 0.026 | 1.02 ± 0.023 | 1.01 ± 0.029 | 1.02 ± 0.027 | 1.03 ± 0.036 | 1.05 ± 0.051 | 1.04 ± 0.04 | 1.03 ± 0.047 | 1.02 ± 0.036 | 0.975 ± 0.04 | 0.971 ± 0.055 | 0.999 ± 0.056 | 0.979 ± 0.047 | 1.01 ± 0.041 | 0.989 ± 0.05 | 0.986 ± 0.025 | 0.994 ± 0.031 | 0.986 ± 0.056 | 0.95 ± 0.067 | 0.928 ± 0.091 | – |
| CC(C)(C)c1ccc(C(=O)Nc2cc(-c3ccccc3)n[nH]2)cc1 [3i-1247] | 1.26 ± 0.087 | 1.338 ± 0.0028 | 1.48 ± 0.063 | 1.411 ± 0.0049 | 1.37 ± 0.064 | 1.2 ± 0.041 | 0.5738 ± 0.0019 | 0.1148 ± 0.00061 | 0.0202 ± 0.0019 | 0.974 ± 0.071 | 0.955 ± 0.11 | 0.803 ± 0.035 | 0.739 ± 0.034 | 0.467 ± 0.062 | 0.365 ± 0.019 | 0.243 ± 0.049 | 1.02 ± 0.037 | 0.998 ± 0.027 | 0.955 ± 0.025 | 0.873 ± 0.027 | 0.446 ± 0.053 | 0.028 ± 0.0065 | 0.00743 ± 0.006 | 0.999 ± 0.019 | 1 ± 0.016 | 0.943 ± 0.046 | 0.877 ± 0.062 | 0.786 ± 0.061 | 0.719 ± 0.071 | 0.584 ± 0.12 | 0.858 ± 0.073 | 0.388 ± 0.12 | 0.19 ± 0.062 | 0.0317 ± 0.0089 | 0.00462 ± 0.0058 | 0.00157 ± 0.00088 | 0.000514 ± 0.00038 | 1.38 ± 0.063 |
| Cn1cc(-c2cc(NC(=O)c3ccc(C(C)(C)C)cc3)n[nH]2)ccc1=O [3i-1248] | 1.15 ± 0.053 | 1.25 ± 0.078 | 1.36 ± 0.027 | 1.503 ± 0.0079 | 1.41 ± 0.072 | 1.37 ± 0.046 | 1.11 ± 0.061 | 0.455 ± 0.036 | 0.00672 ± 0.00072 | 0.989 ± 0.047 | 0.982 ± 0.075 | 0.953 ± 0.12 | 0.861 ± 0.067 | 0.783 ± 0.047 | 0.568 ± 0.075 | 0.0746 ± 0.044 | 1.01 ± 0.029 | 1.01 ± 0.031 | 1 ± 0.035 | 0.984 ± 0.043 | 0.893 ± 0.054 | 0.572 ± 0.078 | 0.0157 ± 0.016 | 0.995 ± 0.032 | 0.989 ± 0.033 | 0.981 ± 0.082 | 0.973 ± 0.046 | 0.913 ± 0.048 | 0.807 ± 0.054 | 0.269 ± 0.13 | 0.988 ± 0.09 | 0.912 ± 0.088 | 0.773 ± 0.053 | 0.459 ± 0.07 | 0.179 ± 0.049 | 0.00744 ± 0.0056 | -0.000138 ± 0.00087 | 1.43 ± 0.11 |
| CC(C)(C)c1cc(NC(=O)Nc2ccc(-c3cn4c(n3)sc3cc(OCCN5CCOCC5)ccc34)cc2)no1 [quizartinib] | – | – | – | – | – | – | – | – | – | 1.08 ± 0.081 | 1.07 ± 0.1 | 0.721 ± 0.12 | 0.633 ± 0.12 | 0.468 ± 0.12 | 0.614 ± 0.093 | 0.384 ± 0.069 | 1 ± 0.03 | 0.813 ± 0.038 | 0.336 ± 0.06 | 0.196 ± 0.052 | 0.0647 ± 0.034 | 0.317 ± 0.075 | 0.0882 ± 0.042 | 0.984 ± 0.052 | 1.01 ± 0.051 | 0.87 ± 0.054 | 0.807 ± 0.021 | 0.716 ± 0.088 | 0.84 ± 0.095 | 0.69 ± 0.13 | 0.00342 ± 0.00075 | 0.00261 ± 0.00061 | 0.00141 ± 0.0005 | 0.00194 ± 0.00081 | 0.000901 ± 0.00082 | 0.00066 ± 0.00036 | 0.000483 ± 0.00064 | – |

Reference: the supplement of paper PMC11952222, “Development and comparison of single FLT3-inhibitors to dual FLT3/TAF1-inhibitors as an anti-leukemic approach” (PLOS One, 2025)
